The target of test [1] is T1, GPX4 (purified recombinant Sec-containing human GPX4) (Homo sapiens, UniProt P36969).
T1 sequence (P36969 28-197): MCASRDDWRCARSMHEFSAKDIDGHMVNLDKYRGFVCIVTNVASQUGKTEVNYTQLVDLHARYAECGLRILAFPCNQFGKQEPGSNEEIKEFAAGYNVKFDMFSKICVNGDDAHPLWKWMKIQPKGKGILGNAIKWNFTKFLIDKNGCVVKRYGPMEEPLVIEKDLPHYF
Put plainly: GR-coupled NADPH fluorescence assay. It counts as biochemical.

Test [2] deals with T2, GPX1 (Homo sapiens, UniProt P07203).
T2 sequence (P07203 1-203): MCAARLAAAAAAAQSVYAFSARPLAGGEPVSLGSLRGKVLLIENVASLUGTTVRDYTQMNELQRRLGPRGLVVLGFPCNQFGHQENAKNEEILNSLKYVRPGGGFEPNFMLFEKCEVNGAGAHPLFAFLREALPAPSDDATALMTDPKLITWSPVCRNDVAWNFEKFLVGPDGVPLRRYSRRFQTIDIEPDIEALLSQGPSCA
Kind of test: GR-coupled NADPH fluorescence assay. It counts as biochemical.

As a reminder, the IC50 is the concentration that gives 50% inhibition.

Consider `O=C(O)CC(S)C(=O)O` (centres unmarked) [thiomalic acid], for which the IC50 in test [1] worked out at 54.8 µM; in test [2] it was 6.7 µM.

For the origin of these results see publication doi:10.1101/2025.11.13.687868v1 (biorxiv, 2025).
